Experimental data taken from the NIST ThermoML archive (doi:10.1016/j.jct.2013.09.020).
± gives the expanded uncertainty stated by the source.

Conditions: Liquid, Calculated from knudsen effusion weight loss

CCC[n+]1ccn(CC)c1.O=S(=O)([N-]S(=O)(=O)C(F)(F)F)C(F)(F)F
Conditions	vapor or sublimation pressure [kPa]
463.58 K	4.86e-05 ± 3.6e-06
465.61 K	5.55e-05 ± 3.7e-06
467.59 K	6.29e-05 ± 3.9e-06
469.6 K	7.12e-05 ± 4.4e-06
471.62 K	8.07e-05 ± 5e-06
473.62 K	9.11e-05 ± 5.6e-06
475.62 K	0.0001034 ± 6.3e-06
477.63 K	0.0001172 ± 7.2e-06
479.56 K	0.0001311 ± 8e-06
481.58 K	0.0001487 ± 9.1e-06
483.6 K	0.0001651 ± 1e-05
485.61 K	0.0001872 ± 1.2e-05
487.62 K	0.0002112 ± 1.3e-05
489.62 K	0.0002364 ± 1.5e-05

Cn1cc[n+](C)c1.O=S(=O)([N-]S(=O)(=O)C(F)(F)F)C(F)(F)F [1,3-dimethylimidazolium bis((trifluoromethyl)sulfonyl)amide]
Conditions	vapor or sublimation pressure [kPa]
475.62 K	4.15e-05 ± 3.5e-06
477.6 K	4.7e-05 ± 3.6e-06
479.6 K	5.33e-05 ± 3.7e-06
481.59 K	6.01e-05 ± 3.8e-06
483.59 K	6.78e-05 ± 4.2e-06
485.6 K	7.63e-05 ± 4.7e-06
487.6 K	8.56e-05 ± 5.3e-06
489.62 K	9.57e-05 ± 5.9e-06
491.67 K	0.0001095 ± 6.7e-06
493.68 K	0.0001225 ± 7.5e-06
